Measured values reported in US10736320B2, “Pesticidally active polycyclic derivatives with 5-membered sulfur containing heterocyclic ring systems” (Syngenta Participations AG, priority 2015, dated 2020).

Legend:
[1] = test system: Plutella xylostella (diamond back moth); experiment: Insecticidal action against Plutella xylostella (diamond back moth), treated artificial diet; type: in vivo; settings: 120 h, application rate of 200 ppm, L2 larvae, 5 days after infestation, read-out: effect in at least one of the two categories (mortality or growth inhibition)
Description: 24-well microtiter plates with artificial diet were treated with aqueous test solutions prepared from 10,000 ppm DMSO stock solutions by pipetting. After drying, the plates were infested with L2 larvae (10 to 15 per well). The samples were assessed for mortality and growth inhibition in comparison to untreated samples 5 days after infestation.

[2] = test system: Diabrotica balteata (corn root worm); experiment: Insecticidal action against Diabrotica balteata (corn root worm), sprayed maize sprouts; type: in vivo; settings: 96 h, application rate of 200 ppm, L2 larvae, 4 days after infestation
Description: Maize sprouts, placed on an agar layer in 24-well microtiter plates were treated with aqueous test solutions prepared from 10,000 ppm DMSO stock solutions by spraying. After drying, the plates were infested with L2 larvae (6 to 10 per well). The samples were assessed for mortality 4 days after infestation.

[3] = test system: Spodoptera littoralis (Egyptian cotton leaf worm); experiment: Insecticidal action against Spodoptera littoralis (Egyptian cotton leaf worm), sprayed cotton leaf discs; type: in vivo; settings: foliar, 72 h, application rate of 200 ppm, L1 larvae, 3 days after infestation, read-out: control (at least one of mortality, anti-feedant effect, and growth inhibition)
Description: Cotton leaf discs were placed on agar in 24-well microtiter plates and sprayed with aqueous test solutions prepared from 10,000 ppm DMSO stock solutions. After drying the leaf discs were infested with five L1 larvae. The samples were assessed for mortality, anti-feedant effect, and growth inhibition in comparison to untreated samples 3 days after infestation. Control of Spodoptera littoralis by a test sample is when at least one of mortality, anti-feedant effect, and growth inhibition is higher than the untreated sample.

[4] = test system: Spodoptera littoralis (Egyptian cotton leaf worm); experiment: Insecticidal action against Spodoptera littoralis (Egyptian cotton leaf worm), uptake by lettuce roots from agar; type: in vivo; settings: 144 h, test rate of 12.5 ppm, 6 days after infestation, read-out: effect in at least one of the three categories (mortality, anti-feedancy, or growth inhibition)
Source text: Test compounds were applied by pipette from 10,000 ppm DMSO stock solutions into 24-well plates and mixed with agar. Lettuce seeds were placed on the agar and the multi well plate was closed by another plate which contains also agar. After 7 days the roots have absorbed the compound and the lettuce has grown into the lid plate. The lettuce leafs were now cut off into the lid plate. Spodoptera eggs were pipetted through a plastic stencil on a humid gel blotting paper and the plate closed with it. The samples were assessed for mortality, anti-feedant effect and growth inhibition in comparison to untreated samples 6 days after infestation.

[5] = test system: Myzus persicae (green peach aphid); experiment: Insecticidal action against Myzus persicae (green peach aphid), sprayed sunflower leaf discs; type: in vivo; settings: foliar, 144 h, application rate of 200 ppm, aphid population of mixed ages, 6 days after infestation
Description: Sunflower leaf discs were placed on agar in a 24-well microtiter plate and sprayed with aqueous test solutions prepared from 10,000 ppm DMSO stock solutions. After drying, the leaf discs were infested with an aphid population of mixed ages. The samples were assessed for mortality 6 days after infestation.

**Q.** Which results are given for `CCS(=O)(=O)c1cc(C(F)(F)F)ccc1-c1nnc(-c2ccc(C(F)(F)F)nc2)s1` [Compound P1, 2-[2-ethylsulfonyl-4-(trifluoromethyl)phenyl]-5-[6-(trifluoromethyl)-3-pyridyl]-1,3,4-thiadiazole]?
**A.** percent effect (mortality or growth inhibition) at 200 ppm [1]: ≥ 80%; mortality at 200 ppm [2]: ≥ 80%; mortality at 200 ppm [3]: ≥ 80%

**Q.** For `CCSc1cc(C(F)(F)F)ccc1-c1nnc(-c2ccc(C(F)(F)F)nc2)s1` [Compound P2, 2-[2-ethylsulfanyl-4-(trifluoromethyl)phenyl]-5-[6-(trifluoromethyl)-3-pyridyl]-1,3,4-thiadiazole], which melting point is on record?
**A.** Its melting point is 170 to 172 °C.

**Q.** Which melting point does the source give for `CCSc1cc(C(F)(F)F)ccc1-c1nnc(-c2cncc(C(F)(F)F)c2)s1` [Compound P3, 2-[2-ethylsulfanyl-4-(trifluoromethyl)phenyl]-5-[5-(trifluoromethyl)-3-pyridyl]-1,3,4-thiadiazole] here?
**A.** Its melting point is 143 to 145 °C.

**Q.** Which results are given for `CCS(=O)(=O)c1cc(C(F)(F)F)ccc1-c1nnc(-c2cncc(C(F)(F)F)c2)s1` [Compound P4, 2-[2-ethylsulfonyl-4-(trifluoromethyl)phenyl]-5-[5-(trifluoromethyl)-3-pyridyl]-1,3,4-thiadiazole]?
**A.** percent effect (mortality or growth inhibition) at 200 ppm [1]: ≥ 80%; mortality at 200 ppm [2]: ≥ 80%; percent control (mortality, anti-feedancy or growth inhibition) at 12.5 ppm [4]: ≥ 80%; mortality at 200 ppm [5]: ≥ 80%; mortality at 200 ppm [3]: ≥ 80%

**Q.** Which melting point does the source give for `CCSc1cc(C(F)(F)F)cnc1-c1nnc(-c2cncc(C(F)(F)F)c2)s1` [Compound P5, 2-[3-ethylsulfanyl-5-(trifluoromethyl)-2-pyridyl]-5-[5-(trifluoromethyl)-3-pyridyl]-1,3,4-thiadiazole] here?
**A.** The melting point was 151 to 153 °C.

**Q.** For `CCS(=O)(=O)c1cc(C(F)(F)F)cnc1-c1nnc(-c2cncc(C(F)(F)F)c2)s1` [Compound P6, 2-[3-ethylsulfonyl-5-(trifluoromethyl)-2-pyridyl]-5-[5-(trifluoromethyl)-3-pyridyl]-1,3,4-thiadiazole], which percent effect (mortality or growth inhibition) at 200 ppm [1] is on record?
**A.** Its percent effect (mortality or growth inhibition) at 200 ppm is ≥ 80%.

**Q.** What about the mortality at 200 ppm [2] of the same compound?
**A.** The mortality at 200 ppm was ≥ 80%.

**Q.** And the mortality at 200 ppm [3]?
**A.** The mortality at 200 ppm was ≥ 80%.

**Q.** Which percent effect (mortality or growth inhibition) at 200 ppm [1] does the source give for `CCSc1cc(C(F)(F)F)ccc1-c1ncc(-c2ccc(C(F)(F)F)nc2)s1` [Compound P7, 2-[2-ethylsulfanyl-4-(trifluoromethyl)phenyl]-5-[6-(trifluoromethyl)-3-pyridyl]thiazole] here?
**A.** The percent effect (mortality or growth inhibition) at 200 ppm was ≥ 80%.

**Q.** For `CCS(=O)(=O)c1cc(C(F)(F)F)ccc1-c1ncc(-c2ccc(C(F)(F)F)nc2)s1` [Compound P8, 2-[2-ethylsulfonyl-4-(trifluoromethyl)phenyl]-5-[6-(trifluoromethyl)-3-pyridyl]thiazole], which percent effect (mortality or growth inhibition) at 200 ppm [1] is on record?
**A.** Its percent effect (mortality or growth inhibition) at 200 ppm is ≥ 80%.

**Q.** And the mortality at 200 ppm [2]?
**A.** The mortality at 200 ppm was ≥ 80%.

**Q.** What about the mortality at 200 ppm [3] of the same compound?
**A.** Its mortality at 200 ppm is ≥ 80%.

**Q.** For `CCS(=O)(=O)c1cc(C(F)(F)F)ccc1-c1ncc(-c2cncc(C(F)(F)F)c2)s1` [Compound P9, 2-[2-ethylsulfonyl-4-(trifluoromethyl)phenyl]-5-[5-(trifluoromethyl)-3-pyridyl]thiazole], which mortality at 200 ppm [2] is on record?
**A.** Its mortality at 200 ppm is ≥ 80%.

**Q.** And the mortality at 200 ppm [3]?
**A.** Its mortality at 200 ppm is ≥ 80%.

**Q.** With `CCS(=O)(=O)c1cc(C(F)(F)F)cnc1-c1nnc(-c2cc(C(F)(F)F)ccn2)s1` [Compound P10, 2-[3-ethylsulfonyl-5-(trifluoromethyl)-2-pyridyl]-5-[4-(trifluoromethyl)-2-pyridyl]-1,3,4-thiadiazole] as the compound, how does the mortality at 200 ppm [2] read?
**A.** Its mortality at 200 ppm is ≥ 80%.

**Q.** What about the mortality at 200 ppm [3] of the same compound?
**A.** The mortality at 200 ppm was ≥ 80%.

**Q.** Which melting point does the source give for `CCS(=O)(=O)c1cc(C(F)(F)F)cnc1-c1nccs1` [Compound P11, 2-[3-ethylsulfonyl-5-(trifluoromethyl)-2-pyridyl]thiazole] here?
**A.** The melting point was 110 to 112 °C.

**Q.** With `CCS(=O)(=O)c1cc(C(F)(F)F)cnc1-c1ncc(-c2cc(C(F)(F)F)ccn2)s1` [Compound P12, 2-[3-ethylsulfonyl-5-(trifluoromethyl)-2-pyridyl]-5-[4-(trifluoromethyl)-2-pyridyl]thiazole] as the compound, how does the melting point read?
**A.** Its melting point is 173 to 175 °C.

**Q.** For `CCS(=O)(=O)c1cc(C(F)(F)F)cnc1-c1ncc(-c2ccc(C(F)(F)F)cn2)s1` [Compound P13, 2-[3-ethylsulfonyl-5-(trifluoromethyl)-2-pyridyl]-5-[5-(trifluoromethyl)-2-pyridyl]thiazole], which melting point is on record?
**A.** Its melting point is 208 to 210 °C.

**Q.** Which mortality at 200 ppm [3] does the source give for `CCS(=O)(=O)c1cc(C(F)(F)F)cnc1-c1ncc(-c2cncc(C(F)(F)F)c2)s1` [Compound P14, 2-[3-ethylsulfonyl-5-(trifluoromethyl)-2-pyridyl]-5-[5-(trifluoromethyl)-3-pyridyl]thiazole] here?
**A.** The mortality at 200 ppm was ≥ 80%.

**Q.** With `CCS(=O)(=O)c1cc(C(F)(F)F)cnc1-c1ncc(-c2ccc(C(F)(F)F)nc2)s1` [Compound P15, 2-[3-ethylsulfonyl-5-(trifluoromethyl)-2-pyridyl]-5-[6-(trifluoromethyl)-3-pyridyl]thiazole] as the compound, how does the melting point read?
**A.** Its melting point is 228 to 230 °C.

**Q.** Which mortality at 200 ppm [2] does the source give for `CCS(=O)(=O)c1cc(-c2ncccn2)cnc1-c1nnc(-c2cncc(C(F)(F)F)c2)s1` [Compound P16, 2-(3-ethylsulfonyl-5-pyrimidin-2-yl-2-pyridyl)-5-[5-(trifluoromethyl)-3-pyridyl]-1,3,4-thiadiazole] here?
**A.** The mortality at 200 ppm was ≥ 80%.

**Q.** For `CCS(=O)(=O)c1ccc(-c2ncccn2)nc1-c1nnc(-c2cncc(C(F)(F)F)c2)s1` [Compound P17, 2-(3-ethylsulfonyl-6-pyrimidin-2-yl-2-pyridyl)-5-[5-(trifluoromethyl)-3-pyridyl]-1,3,4-thiadiazole], which percent effect (mortality or growth inhibition) at 200 ppm [1] is on record?
**A.** Its percent effect (mortality or growth inhibition) at 200 ppm is ≥ 80%.

**Q.** And the mortality at 200 ppm [2]?
**A.** The mortality at 200 ppm was ≥ 80%.

**Q.** Which percent effect (mortality or growth inhibition) at 200 ppm [1] does the source give for `CCS(=O)(=O)c1cc(C2CC2)cnc1-c1nnc(-c2cc(C(F)(F)F)ccn2)s1` [Compound P18, 2-(5-cyclopropyl-3-ethylsulfonyl-2-pyridyl)-5-[4-(trifluoromethyl)-2-pyridyl]-1,3,4-thiadiazole] here?
**A.** The percent effect (mortality or growth inhibition) at 200 ppm was ≥ 80%.

**Q.** And the mortality at 200 ppm [2]?
**A.** Its mortality at 200 ppm is ≥ 80%.

**Q.** What about the mortality at 200 ppm [3] of the same compound?
**A.** Its mortality at 200 ppm is ≥ 80%.

**Q.** Which results are given for `CCS(=O)(=O)c1cc(C2CC2)cnc1-c1nnc(-c2cncc(C(F)(F)F)c2)s1` [Compound P19, 2-(5-cyclopropyl-3-ethylsulfonyl-2-pyridyl)-5-[5-(trifluoromethyl)-3-pyridyl]-1,3,4-thiadiazole]?
**A.** percent effect (mortality or growth inhibition) at 200 ppm [1]: ≥ 80%; mortality at 200 ppm [2]: ≥ 80%; mortality at 200 ppm [5]: ≥ 80%; mortality at 200 ppm [3]: ≥ 80%

**Q.** What does the source list for `CCS(=O)(=O)c1ccc(C2CC2)nc1-c1nnc(-c2cncc(C(F)(F)F)c2)s1` [Compound P20, 2-(6-cyclopropyl-3-ethylsulfonyl-2-pyridyl)-5-[5-(trifluoromethyl)-3-pyridyl]-1,3,4-thiadiazole]?
**A.** percent effect (mortality or growth inhibition) at 200 ppm [1]: ≥ 80%; mortality at 200 ppm [2]: ≥ 80%; mortality at 200 ppm [3]: ≥ 80%

**Q.** With `CCS(=O)(=O)c1cc(C(F)(F)F)cnc1-c1nnc(-c2ccc(C(F)(F)F)nc2)s1` [Compound P21, 2-[3-ethylsulfonyl-5-(trifluoromethyl)-2-pyridyl]-5-[6-(trifluoromethyl)-3-pyridyl]-1,3,4-thiadiazole] as the compound, how does the melting point read?
**A.** The melting point was 193 to 195 °C.
